Columns and labels:
[1] = DRUGMATRIX: Sodium/nucleoside co-transporter radioligand binding (ligand: nitrobenzylthioinosine); type: cell membranes, Cavia porcellus, Dunkin-Hartley, Cerebral cortex, Membrane; conditions: Not Active = under 50% inhibition at 10 µM
[2] = biological target: Beta-2 adrenergic receptor (Homo sapiens, UniProt P07550); assay: DRUGMATRIX: Adrenergic beta2 radioligand binding (ligand: [3H] CGP-12177); type: cell membranes, CHO, Membrane; conditions: cho; Not Active = under 50% inhibition at 10 µM
Substance-P receptor = Substance-P receptor (Homo sapiens, UniProt P25103); type: cell membranes, Membrane; conditions: cho; note: in other assays of this panel Not Active means under 50% inhibition at 10 µM
Thromboxane-A synthase = biological target: T1, Thromboxane-A synthase (Homo sapiens, UniProt P24557); assay: biochemical; type: tissue-based, Platelet; conditions: platelet;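 note: enzyme inhibition assay with PGH2 supplied as substrate; in other assays of this panel Not Active means under 50% inhibition at 10 µM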
T1 sequence (P24557 whole entry): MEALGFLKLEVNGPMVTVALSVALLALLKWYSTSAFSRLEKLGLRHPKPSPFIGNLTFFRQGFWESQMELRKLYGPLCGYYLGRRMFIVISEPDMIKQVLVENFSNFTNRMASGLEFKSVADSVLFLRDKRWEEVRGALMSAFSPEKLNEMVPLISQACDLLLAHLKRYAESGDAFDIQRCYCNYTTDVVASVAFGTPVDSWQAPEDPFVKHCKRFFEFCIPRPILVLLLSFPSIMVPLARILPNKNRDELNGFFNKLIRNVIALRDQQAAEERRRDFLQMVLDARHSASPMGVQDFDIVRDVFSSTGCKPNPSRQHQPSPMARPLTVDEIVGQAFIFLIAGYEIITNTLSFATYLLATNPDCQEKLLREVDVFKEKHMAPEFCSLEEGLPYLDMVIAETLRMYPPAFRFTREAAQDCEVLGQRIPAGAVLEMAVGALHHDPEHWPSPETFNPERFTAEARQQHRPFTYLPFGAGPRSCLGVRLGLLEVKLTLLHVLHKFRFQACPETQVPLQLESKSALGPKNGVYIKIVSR

D(3) dopamine receptor = D(3) dopamine receptor (Homo sapiens, UniProt P35462); assay: DRUGMATRIX: Dopamine D3 radioligand binding (ligand: [3H] Spiperone); type: cell membranes, CHO, Membrane; conditions: cho
[3] = DRUGMATRIX: GABAA, Muscimol, Central radioligand binding (ligand: [3H] Muscimol); type: cell membranes, Rattus norvegicus, Wistar, Brain, Membrane; conditions: Not Active = under 50% inhibition at 10 µM
[4] = biological target: T2, Neuropeptide Y receptor type 1 (Homo sapiens, UniProt P25929); type: cell membranes, Membrane; conditions: sk-n-mc; note: in other assays of this panel Not Active means under 50% inhibition at 10 µM
T2 sequence (P25929 whole entry): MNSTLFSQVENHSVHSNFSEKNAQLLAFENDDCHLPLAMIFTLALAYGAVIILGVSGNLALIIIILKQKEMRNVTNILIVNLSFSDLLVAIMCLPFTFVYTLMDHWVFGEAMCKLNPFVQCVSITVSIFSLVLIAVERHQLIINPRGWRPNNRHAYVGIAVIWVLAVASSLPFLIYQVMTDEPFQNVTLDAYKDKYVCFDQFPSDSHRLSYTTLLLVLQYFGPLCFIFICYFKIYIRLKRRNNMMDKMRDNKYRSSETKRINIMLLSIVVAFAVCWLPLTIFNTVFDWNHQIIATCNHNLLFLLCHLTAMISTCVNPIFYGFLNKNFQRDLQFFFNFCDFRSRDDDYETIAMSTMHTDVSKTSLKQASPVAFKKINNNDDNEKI

[5] = biological target: T3, Nitric oxide synthase, inducible (Mus musculus, UniProt P29477); parameters: species or system Escherichia coli;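 note: inhibition of iNOS enzyme activity measured with L-arginine as substrate; in other assays of this panel Not Active means under 50% inhibition at 10 µM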
T3 sequence (P29477 whole entry): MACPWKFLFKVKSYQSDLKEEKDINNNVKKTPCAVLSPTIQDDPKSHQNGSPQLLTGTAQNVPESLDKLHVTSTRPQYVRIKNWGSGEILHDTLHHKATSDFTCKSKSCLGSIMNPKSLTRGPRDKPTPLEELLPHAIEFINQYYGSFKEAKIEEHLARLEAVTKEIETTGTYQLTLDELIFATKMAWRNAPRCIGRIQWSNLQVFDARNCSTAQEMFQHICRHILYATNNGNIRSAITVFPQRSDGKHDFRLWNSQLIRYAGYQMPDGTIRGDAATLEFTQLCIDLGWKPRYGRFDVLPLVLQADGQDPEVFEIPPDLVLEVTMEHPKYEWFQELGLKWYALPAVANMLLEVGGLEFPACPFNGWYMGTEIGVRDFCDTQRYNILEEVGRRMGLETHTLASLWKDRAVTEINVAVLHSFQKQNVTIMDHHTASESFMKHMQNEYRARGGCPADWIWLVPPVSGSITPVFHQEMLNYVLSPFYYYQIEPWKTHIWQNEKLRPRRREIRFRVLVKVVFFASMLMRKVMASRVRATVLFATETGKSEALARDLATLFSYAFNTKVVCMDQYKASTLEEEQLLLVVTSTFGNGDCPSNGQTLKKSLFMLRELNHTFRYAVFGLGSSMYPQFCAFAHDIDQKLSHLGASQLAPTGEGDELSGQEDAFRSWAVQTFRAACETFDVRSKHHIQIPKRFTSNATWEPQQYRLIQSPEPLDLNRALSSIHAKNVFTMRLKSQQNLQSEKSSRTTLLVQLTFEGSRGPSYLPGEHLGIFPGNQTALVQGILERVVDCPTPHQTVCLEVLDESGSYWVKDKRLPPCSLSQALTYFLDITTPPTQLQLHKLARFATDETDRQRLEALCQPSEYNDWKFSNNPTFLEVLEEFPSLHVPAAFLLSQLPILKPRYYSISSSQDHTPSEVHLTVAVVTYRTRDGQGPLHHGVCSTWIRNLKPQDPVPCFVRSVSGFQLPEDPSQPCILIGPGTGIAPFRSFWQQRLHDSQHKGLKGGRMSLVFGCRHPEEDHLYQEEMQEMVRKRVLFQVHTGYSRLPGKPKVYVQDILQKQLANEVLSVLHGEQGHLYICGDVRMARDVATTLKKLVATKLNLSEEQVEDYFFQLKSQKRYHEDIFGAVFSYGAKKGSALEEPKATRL

Chain of D(3) dopamine receptor (P35462 whole entry): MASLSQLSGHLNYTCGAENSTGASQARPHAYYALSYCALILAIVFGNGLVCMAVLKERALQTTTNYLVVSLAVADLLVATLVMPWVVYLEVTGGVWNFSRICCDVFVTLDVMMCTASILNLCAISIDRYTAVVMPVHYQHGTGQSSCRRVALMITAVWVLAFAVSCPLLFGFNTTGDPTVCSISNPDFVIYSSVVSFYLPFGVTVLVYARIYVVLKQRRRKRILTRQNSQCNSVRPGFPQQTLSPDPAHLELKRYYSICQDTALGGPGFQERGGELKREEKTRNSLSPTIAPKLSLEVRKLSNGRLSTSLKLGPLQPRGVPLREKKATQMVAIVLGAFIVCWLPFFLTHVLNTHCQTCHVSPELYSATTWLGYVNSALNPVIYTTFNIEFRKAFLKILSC
Chain of Substance-P receptor (P25103 whole entry): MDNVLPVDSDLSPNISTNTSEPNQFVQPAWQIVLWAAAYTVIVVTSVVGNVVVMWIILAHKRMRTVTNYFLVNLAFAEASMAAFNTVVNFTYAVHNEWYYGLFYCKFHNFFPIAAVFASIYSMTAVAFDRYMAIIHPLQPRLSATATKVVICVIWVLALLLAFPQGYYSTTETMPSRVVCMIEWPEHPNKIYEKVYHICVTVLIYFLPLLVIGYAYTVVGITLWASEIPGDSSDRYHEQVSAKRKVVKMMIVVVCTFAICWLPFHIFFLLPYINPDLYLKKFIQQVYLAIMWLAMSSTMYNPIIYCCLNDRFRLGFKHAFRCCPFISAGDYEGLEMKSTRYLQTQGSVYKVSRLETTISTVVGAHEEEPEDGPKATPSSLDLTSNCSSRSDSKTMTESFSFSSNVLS
Chain of Beta-2 adrenergic receptor (P07550 whole entry): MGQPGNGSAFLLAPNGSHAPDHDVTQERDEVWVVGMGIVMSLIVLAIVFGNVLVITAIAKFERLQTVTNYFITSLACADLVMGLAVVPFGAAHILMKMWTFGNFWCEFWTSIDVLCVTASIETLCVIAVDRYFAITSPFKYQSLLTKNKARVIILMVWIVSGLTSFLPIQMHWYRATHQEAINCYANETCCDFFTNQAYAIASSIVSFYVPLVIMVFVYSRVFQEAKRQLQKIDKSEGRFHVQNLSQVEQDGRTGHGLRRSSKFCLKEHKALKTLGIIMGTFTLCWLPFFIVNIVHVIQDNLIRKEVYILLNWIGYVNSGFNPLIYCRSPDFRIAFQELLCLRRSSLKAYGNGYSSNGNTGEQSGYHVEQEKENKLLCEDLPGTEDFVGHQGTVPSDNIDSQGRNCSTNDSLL

NC[C@@H]1O[C@H](O[C@H]2[C@@H](O)[C@H](O[C@@H]3[C@@H](O)[C@H](N)C[C@H](N)[C@H]3O[C@H]3O[C@H](CN)[C@@H](O)[C@H](O)[C@H]3N)O[C@@H]2CO)[C@H](N)[C@@H](O)[C@@H]1O [FRAMYCETIN]
Not Active: IC50 [1] | Ki [1] | IC50 [2] | IC50 (Substance-P receptor) | IC50 (Thromboxane-A synthase) | IC50 (D(3) dopamine receptor) | IC50 [3] | Ki [3] | IC50 [4] | IC50 [5]

C[C@H]([C@](O)(Cn1cncn1)c1ccc(F)cc1F)S(C)(=O)=O [GENACONAZOLE]
Not Active: IC50 [1] | Ki [1] | IC50 [2] | IC50 (Substance-P receptor) | IC50 (Thromboxane-A synthase) | IC50 (D(3) dopamine receptor) | IC50 [3] | Ki [3] | IC50 [4] | IC50 [5]

Cc1c(F)c(N2CCNC(C)C2)cc2c1c(=O)c(C(=O)O)cn2C1CC1 (stereo not given) [GREPAFLOXACIN]
Not Active: IC50 [1] | Ki [1] | IC50 [2] | IC50 (Substance-P receptor) | IC50 (Thromboxane-A synthase) | IC50 (D(3) dopamine receptor) | IC50 [3] | Ki [3] | IC50 [4] | IC50 [5]

COc1ccccc1OCC(O)CO (stereo not given) [GUAIFENESIN]
Not Active: IC50 [1] | Ki [1] | IC50 [2] | IC50 (Substance-P receptor) | IC50 (Thromboxane-A synthase) | IC50 (D(3) dopamine receptor) | IC50 [3] | Ki [3] | IC50 [4] | IC50 [5]

N=C(N)N/N=C/c1c(Cl)cccc1Cl [GUANABENZ]
Not Active: IC50 [1] | Ki [1] | IC50 [2] | IC50 (Substance-P receptor) | IC50 (Thromboxane-A synthase) | IC50 (D(3) dopamine receptor) | IC50 [3] | Ki [3] | IC50 [4] | IC50 [5]

C[C@]12CCC(=O)C=C1CC[C@@H]1[C@@H]2[C@@H](O)C[C@@]2(C)[C@H]1CC[C@]2(O)C(=O)CO [HYDROCORTISONE]
Not Active: IC50 [1] | Ki [1] | IC50 [2] | IC50 (Substance-P receptor) | IC50 (Thromboxane-A synthase) | IC50 (D(3) dopamine receptor) | IC50 [3] | Ki [3] | IC50 [4] | IC50 [5]

C/C=C\c1ccc(O)c(OC)c1 [ISOEUGENOL]
Not Active: IC50 [1] | Ki [1] | IC50 [2] | IC50 (Substance-P receptor) | IC50 (Thromboxane-A synthase) | IC50 (D(3) dopamine receptor) | IC50 [3] | Ki [3] | IC50 [4] | IC50 [5]

NC[C@H]1O[C@H](O[C@H]2[C@H](O)[C@@H](O[C@H]3O[C@H](CO)[C@@H](O)[C@H](N)[C@H]3O)[C@H](N)C[C@@H]2N)[C@H](O)[C@@H](O)[C@@H]1O [KANAMYCIN]
Not Active: IC50 [1] | Ki [1] | IC50 [2] | IC50 (Substance-P receptor) | IC50 (Thromboxane-A synthase) | IC50 (D(3) dopamine receptor) | IC50 [3] | Ki [3] | IC50 [4] | IC50 [5]

CC[C@H](C)C(=O)O[C@H]1C[C@@H](C)C=C2C=C[C@H](C)[C@H](CC[C@@H]3C[C@@H](O)CC(=O)O3)[C@H]21 [LOVASTATIN]
Not Active: IC50 [1] | Ki [1] | IC50 [2] | IC50 (Substance-P receptor) | IC50 (Thromboxane-A synthase) | IC50 (D(3) dopamine receptor) | IC50 [3] | Ki [3] | IC50 [4] | IC50 [5]

CC(C(=O)O)c1ccc(CC2CCCC2=O)cc1 (stereo not given) [LOXOPROFEN]
Not Active: IC50 [1] | Ki [1] | IC50 [2] | IC50 (Substance-P receptor) | IC50 (Thromboxane-A synthase) | IC50 (D(3) dopamine receptor) | IC50 [3] | Ki [3] | IC50 [4] | IC50 [5]

Cc1cccc(Nc2ccccc2C(=O)O)c1C [MEFENAMIC ACID]
Not Active: IC50 [1] | Ki [1] | IC50 [2] | IC50 (Substance-P receptor) | IC50 (Thromboxane-A synthase) | IC50 (D(3) dopamine receptor) | IC50 [3] | Ki [3] | IC50 [4] | IC50 [5]

CC(=O)O[C@]1(C(C)=O)CC[C@H]2[C@@H]3C=C(C)C4=CC(=O)CC[C@]4(C)[C@H]3CC[C@@]21C [MEGESTROL ACETATE]
Not Active: IC50 [1] | Ki [1] | IC50 [2] | IC50 (Substance-P receptor) | IC50 (Thromboxane-A synthase) | IC50 (D(3) dopamine receptor) | IC50 [3] | Ki [3] | IC50 [4] | IC50 [5]

COc1ccccc1OCC(O)COC(N)=O (stereo not given) [METHOCARBAMOL]
Not Active: IC50 [1] | Ki [1] | IC50 [2] | IC50 (Substance-P receptor) | IC50 (Thromboxane-A synthase) | IC50 (D(3) dopamine receptor) | IC50 [3] | Ki [3] | IC50 [4] | IC50 [5]
